These compounds were tested on 3D7 P. falciparum strain (assay: P. falciparum 3D7 parasite proliferation assay (SYBR Green)). Conditions: Plasmodium falciparum, Erythrocyte; 3D7 P. falciparum infected human erythrocytes, 72 hours, SYBR Green fluorescence; read-out: Pf3D7 Activity.
Assay type: cell-based
Protocol: The following assay illustrates the invention without in any way limiting the scope of the invention. This parasite proliferation assay measures the increase in parasite DNA content using a DNA intercalating dye, SYBR Green®. 3D7 P. falciparum strain is grown in complete culturing media until parasitemia reaches 3% to 8% with O+ human erythrocytes. 20 μl of screening media is dispensed into 384 well assay plates. 50 nl of compounds of the invention (in DMSO), including antimalarial controls (mefloquine, pyrimethamine and artemisinin), are then transferred into the assay plates, as well as DMSO alone to serve as a negative control for inhibition. Then 30 μl of a suspension of a 3D7 P. falciparum infected erythrocytes in screening media is dispensed into the assay plates such that the final hematocrit is 2.5% with a final parasitemia of 0.3%. The plates are placed in a 37° C. incubator for 72 hours in a low oxygen environment containing 93% N2, 4% CO2, and 3% O2 gas mixture. 10 μl of lysis buffer (saponin, triton-X, EDTA) containing a 10× solution of SYBR Green […] in RPMI media is dispensed into the plates. The plates are lidded and kept at room temperature overnight for the lysis of the infected red blood cells. The fluorescence intensity is measured (excitation […], emission 530 nm) using the Envision™ system (Perkin Elmer). The percentage inhibition of 50%, EC50, is calculated for each compound.
Cc1c(-c2cncc(C(=O)NCC3(N)COC3)n2)[nH]c2ccccc12 [Example 95, N-((3-aminooxetan-3-yl)methyl)-6-(3-methyl-1H-indol-2-yl)pyrazine-2-carboxamide] showed an EC50 of over 100 nM. Cc1c(-c2cncc(C(=O)NCC(C)(C)N3CCOCC3)n2)[nH]c2ccccc12 [Example 96, 6-(3-Methyl-1H-indol-2-yl)-N-(2-methyl-2-morpholinopropyl)pyrazine-2-carboxamide] gave an EC50 of over 100 nM. In the case of Cc1c(-c2cncc(C(=O)NCC(C)(C)C)n2)[nH]c2ccccc12 [Example 68, 6-(3-methyl-1H-indol-2-yl)-N-neopentylpyrazine-2-carboxamide], the EC50 is reported as over 100 nM. With CC(C)(N)CNC(=O)c1cncc(-c2cc3cc(C#N)ccc3[nH]2)n1 [Example 104] the EC50 was over 100 nM. Compound Cc1ccc2cc(-c3cncc(C(=O)NCC(C)(C)N)n3)[nH]c2c1 [Example 23, N-(2-amino-2-methylpropyl)-6-(6-methyl-1H-indol-2-yl)pyrazine-2-carboxamide] has an EC50 of 10 to 100 nM. For Cc1c(-c2cncc(C(=O)NCC(N)CO)n2)[nH]c2ccccc12 (stereo not shown) [Example 94, N-(2-amino-3-hydroxypropyl)-6-(3-methyl-1H-indol-2-yl)pyrazine-2-carboxamide], the EC50 was over 100 nM. CC(C)(N)CNC(=O)c1cncc(-c2cc3cc(C(F)(F)F)ccc3[nH]2)n1 [Example 18, N-(2-amino-2-methylpropyl)-6-(5-(trifluoromethyl)-1H-indol-2-yl)pyrazine-2-carboxamide] showed an EC50 of 10 to 100 nM. CC(C)(N)CNC(=O)c1cncc(-c2cc3cc(F)c(O)cc3[nH]2)n1 [Example 110, N-(2-amino-2-methylpropyl)-6-(5-fluoro-6-hydroxy-1H-indol-2-yl)pyrazine-2-carboxamide] was tested, and the EC50 was over 100 nM. CC(C)(N)CNC(=O)c1cncc(-c2cc3cc(Cl)ccc3[nH]2)n1 [Example 19, N-(2-amino-2-methylpropyl)-6-(5-chloro-1H-indol-2-yl)pyrazine-2-carboxamide] showed an EC50 of 10 to 100 nM. Cc1c(-c2cncc(C(=O)NCC(C)(C)N)n2)[nH]c2cc(OC(F)F)ccc12 [Example 69, N-(2-Amino-2-methylpropyl)-6-(6-(difluoromethoxy)-3-methyl-1H-indol-2-yl)pyrazine-2-carboxamide] showed an EC50 of 10 to 100 nM. For CC(C)(N)CNC(=O)c1cncc(-c2[nH]c3ccccc3c2C#N)n1 [Example 57, N-(2-amino-2-methylpropyl)-6-(3-cyano-1H-indol-2-yl)pyrazine-2-carboxamide], the EC50 was over 100 nM. Cc1c(-c2cncc(C(=O)NCC(C)(C)N)n2)[nH]c2c1CCC(C)(C)C2 [Example 76, N-(2-Amino-2-methylpropyl)-6-(3,6,6-trimethyl-4,5,6,7-tetrahydro-1H-indol-2-yl)pyrazine-2-carboxamide] was tested, and the EC50 was 10 to 100 nM. Cc1c(-c2cncc(C(=O)N[C@@H]3CCCC[C@@H]3N)n2)[nH]c2ccccc12 (racemic) [Example 98, (rac)-N-((1r,2s)-2-aminocyclohexyl)-6-(3-methyl-1H-indol-2-yl)pyrazine-2-carboxamide] was tested, and the EC50 was over 100 nM. Work on Cc1c(-c2cncc(C(=O)NCC(C)(C)N)n2)[nH]c2ccccc12 [Example 83, N-(2-amino-2-methylpropyl)-6-(3-methyl-1H-indol-2-yl)pyrazine-2-carboxamide] yielded an EC50 of 10 to 100 nM. With COC(=O)c1ccc2[nH]c(-c3cncc(C(=O)NCC(C)(C)N)n3)c(C)c2c1 [Example 48, Methyl 2-(6-((2-amino-2-methylpropyl)carbamoyl)pyrazin-2-yl)-3-methyl-1H-indole-5-carboxylate] the EC50 was 10 to 100 nM. Cc1c(-c2cncc(C(=O)NCC(C)(C)N)n2)[nH]c2c1C(=O)CC(C)(C)C2 [Example 56, N-(2-amino-2-methylpropyl)-6-(3,6,6-trimethyl-4-oxo-4,5,6,7-tetrahydro-1H-indol-2-yl)pyrazine-2-carboxamide] was tested, and the EC50 was over 100 nM. For Cc1c(-c2cncc(C(=O)N[C@H]3COC[C@H]3N)n2)[nH]c2ccccc12 (racemic) [Example 99, (rac)-N-((3r,4s)-4-aminotetrahydrofuran-3-yl)-6-(3-methyl-1H-indol-2-yl)pyrazine-2-carboxamide], the EC50 was over 100 nM. Compound Cc1c(-c2cncc(C(=O)NC3CNC3)n2)[nH]c2ccccc12 [Example 91, N-(azetidin-3-yl)-6-(3-methyl-1H-indol-2-yl)pyrazine-2-carboxamide] has an EC50 of over 100 nM. Compound Cc1c(-c2cncc(C(=O)NCC(C)(C)N)n2)[nH]c2c(F)cc(Cl)cc12 [Example 6, N-(2-amino-2-methylpropyl)-6-(5-chloro-7-fluoro-3-methyl-1H-indol-2-yl)pyrazine-2-carboxamide] has an EC50 of under 10 nM. For CC(C)(N)CNC(=O)c1cncc(-c2[nH]c3ccccc3c2Cl)n1 [Example 49, N-(2-amino-2-methylpropyl)-6-(3-chloro-1H-indol-2-yl)pyrazine-2-carboxamide], the EC50 was 10 to 100 nM. Compound Cc1c(-c2cncc(C(=O)NCC(C)(C)N)n2)[nH]c2ccc(Cl)cc12 [Example 12, N-(2-amino-2-methylpropyl)-6-(5-chloro-3-methyl-1H-indol-2-yl)pyrazine-2-carboxamide] has an EC50 of 10 to 100 nM. Cc1c(-c2cncc(C(=O)NCC3(N)CCOCC3)n2)[nH]c2ccccc12 [Example 89, N-((4-aminotetrahydro-2H-pyran-4-yl)methyl)-6-(3-methyl-1H-indol-2-yl)pyrazine-2-carboxamide] showed an EC50 of 10 to 100 nM. Cc1c(-c2cncc(C(=O)NCC3(N)CC(F)(F)C3)n2)[nH]c2cc(Cl)c(F)cc12 [Example 82, N-((1-amino-3,3-difluorocyclobutyl)methyl)-6-(6-chloro-5-fluoro-3-methyl-1H-indol-2-yl)pyrazine-2-carboxamide] showed an EC50 of 10 to 100 nM. For CCOC(=O)c1cc2[nH]c(-c3cncc(C(=O)NCC(C)(C)N)n3)c(C)c2s1 [Example 72, Ethyl 5-(6-((2-amino-2-methylpropyl)carbamoyl)pyrazin-2-yl)-6-methyl-4H-thieno[3,2-b]pyrrole-2-carboxylate], the EC50 was under 10 nM. Cc1c(-c2cncc(C(=O)NCC(C)(C)N)n2)[nH]c2c(F)c(Cl)ccc12 [Example 4, N-(2-amino-2-methylpropyl)-6-(6-chloro-7-fluoro-3-methyl-1H-indol-2-yl)pyrazine-2-carboxamide] showed an EC50 of under 10 nM. CC(C)(N)CNC(=O)c1cncc(-c2cc3cccc(Cl)c3[nH]2)n1 [Example 28, N-(2-amino-2-methylpropyl)-6-(7-chloro-1H-indol-2-yl)pyrazine-2-carboxamide] was tested, and the EC50 was 10 to 100 nM. Cc1c(-c2cncc(C(=O)NCC(C)(C)N)n2)[nH]c2cc(Cl)c(F)cc12 [Example 1, N-(2-amino-2-methylpropyl)-6-(6-chloro-5-fluoro-3-methyl-1H-indol-2-yl)pyrazine-2-carboxamide] was tested, and the EC50 was under 10 nM. For Cc1c(-c2cncc(C(=O)NCC(C)(C)N)n2)[nH]c2ccc(OC(F)F)cc12 [Example 70, N-(2-amino-2-methylpropyl)-6-(5-(difluoromethoxy)-3-methyl-1H-indol-2-yl)pyrazine-2-carboxamide], the EC50 was 10 to 100 nM. Cc1c(-c2cncc(C(=O)NC34CC(N)(C3)C4)n2)[nH]c2ccc(OC(F)(F)F)cc12 [Example 64, N-(3-aminobicyclo[1.1.1]pentan-1-yl)-6-(3-methyl-5-(trifluoromethoxy)-1H-indol-2-yl)pyrazine-2-carboxamide] showed an EC50 of 10 to 100 nM. In the case of CC(C)c1c(-c2cncc(C(=O)NCC(C)(C)N)n2)[nH]c2ccc(OC(F)(F)F)cc12 [Example 16, N-(2-amino-2-methylpropyl)-6-(3-isopropyl-5-(trifluoromethoxy)-1H-indol-2-yl)pyrazine-2-carboxamide], the EC50 is reported as 10 to 100 nM. Compound CC(C)(N)CNC(=O)c1cncc(-c2cc3cc(Cl)nc(Cl)c3[nH]2)n1 [Example 38, N-(2-amino-2-methylpropyl)-6-(5,7-dichloro-1H-pyrrolo[2,3-c]pyridin-2-yl)pyrazine-2-carboxamide] has an EC50 of over 100 nM. For Cc1c(-c2cncc(C(=O)NCC3(N)CCC3)n2)[nH]c2ccc(OC(F)(F)F)cc12 [Example 58, N-((1-aminocyclobutyl)methyl)-6-(3-methyl-5-(trifluoromethoxy)-1H-indol-2-yl)pyrazine-2-carboxamide], the EC50 was under 10 nM. For CC(C)(N)CNC(=O)c1cncc(-c2cc3cc(F)c(Cl)nc3[nH]2)n1 [Example 33, N-(2-amino-2-methylpropyl)-6-(6-chloro-5-fluoro-1H-pyrrolo[2,3-b]pyridin-2-yl)pyrazine-2-carboxamide], the EC50 was over 100 nM. For COc1ccc2cc(-c3cncc(C(=O)NCC(C)(C)N)n3)[nH]c2c1 [Example 31, N-(2-amino-2-methylpropyl)-6-(6-methoxy-1H-indol-2-yl)pyrazine-2-carboxamide], the EC50 was over 100 nM. In the case of CC(C)(N)CNC(=O)c1cncc(-c2cc3ccc(F)cc3[nH]2)n1 [Example 21, N-(2-amino-2-methylpropyl)-6-(6-fluoro-1H-indol-2-yl)pyrazine-2-carboxamide], the EC50 is reported as 10 to 100 nM. Cc1c(-c2cncc(C(=O)NCC(N)C3CC3)n2)[nH]c2ccccc12 (stereo not shown) [Example 102] gave an EC50 of 10 to 100 nM. Cc1c(-c2cncc(C(=O)NCC3(N)CCC3)n2)[nH]c2ccccc12 [Example 84, N-((1-aminocyclobutyl)methyl)-6-(3-methyl-1H-indol-2-yl)pyrazine-2-carboxamide] gave an EC50 of 10 to 100 nM.

— patent US20250197376A1, “PYRAZINE AMIDE DERIVATIVES” (Novartis AG, priority 2022, published 2025)
